Laboratory results published in patent publication US20140358094A1, “COMPOSITION, THE NANO-EMULSION AND TRANSDERMAL PATCH, METHODS OF PREPARATION AND USE THEREOF FOR TREATING TRAUMATIC INJURIES” (Nano and Advanced Materials Institute Limited, priority 2013, published 2014).

Test: In vitro skin diffusion study, vertical Franz diffusion cell, HPLC-ESI-MS of markers
Type: in vitro ADME, pig
Details: 24 hours; for elevation of diffusion properties, transdermal patch relative to herbal paste control, receiving medium: FIG. 4A, markers diffused in the receiving medium; for elevation of diffusion properties, transdermal patch relative to herbal paste control, pig skin: FIG. 4B, markers remained in the pig skin; for percentage by weight of marker diffused to the dermis (remained in pig skin), Herbal Paste (Control) / percentage by weight of marker in the receiving cell, Herbal Paste (Control): donor: herbal paste of Example 1; for percentage by weight of marker diffused to the dermis (remained in pig skin), Herbal Paste (Control) / percentage by weight of marker in the receiving cell, Herbal Paste (Control) / percentage by weight of marker diffused to the dermis (remained in pig skin), Transdermal Patch (Test Sample) / percentage by weight of marker in the receiving cell, Transdermal Patch (Test Sample): 37° C., pig skin; for percentage by weight of marker diffused to the dermis (remained in pig skin), Transdermal Patch (Test Sample) / percentage by weight of marker in the receiving cell, Transdermal Patch (Test Sample): donor: transdermal patch of Example 4.2
Procedure: A vertical Franz diffusion cell (Hanson Research, USA) is used to carry out in vitro skin diffusion study. […] The receiving medium is formed by physiological saline solution of (0.9% NaCl). The donor compartment is filled with the test sample or control sample. […] After 24 hours, contents of the receiving cell and pig skin sample are collected, the solution from the receiving cell (i.e. receiving medium) and pig skin are detected for chemical markers found therein in order to analyze the transdermal diffusion rate of the test sample and control sample. The test is performed in triplicate. HPLC-ESI-MS is used to detect diffused markers and control sample. Agilent 1290 Infinity LC system (purchased from Agilent Technologies) having a vacuum device, a binary liquid pump, an autosampler, Agilent 6410 triple quadrupole (Triple Quad) LC/MS connected with a Agilent MassHunter computer software (Workstation) is used. Acquity UPLC HSS T3 1.8 μm (2.1 mm×150 mm) column is used and the Acquity UPLC is maintained a temperature of 40° C. […] The flow rate is controlled at 0.5 mL/min, and injection volume of 20 µL. MS analysis using Agilent 6410 triple quadrupole LC/MS configured with ESI MS is carried out under negative ion mode and multiple reaction monitoring modes. Target ions of HYA is m/z 611.2->325.0; Rg1 is m/z 799.5->637.4; […] is m/z 927.5->603.3; Rb1 is m/z 1107.6->119.0; Kae is m/z 285.0->117.0; Emo is m/z 269.0->241.0; Rhe is m/z 283.0->239.0 and OA is m/z 455.3->407.4.

| elevation of diffusion properties, transdermal patch relative to herbal paste control, receiving medium | elevation of diffusion properties, transdermal patch relative to herbal paste control, pig skin | percentage by weight of marker diffused to the dermis (remained in pig skin), Herbal Paste (Control) | percentage by weight of marker in the receiving cell, Herbal Paste (Control) (receiving medium 0.9% NaCl) | percentage by weight of marker diffused to the dermis (remained in pig skin), Transdermal Patch (Test Sample) | percentage by weight of marker in the receiving cell, Transdermal Patch (Test Sample) (receiving medium 0.9% NaCl) | detection in the receiving medium (in words) (receiving medium 0.9% NaCl) | Compound |
| --- | --- | --- | --- | --- | --- | --- | --- |
| 203 times | 5 times | 0.2773 wt % | 0.0091 wt % | 1.3656 wt % | 1.8494 wt % |  | Cc1cc(O)c2c(c1)C(=O)c1cc(O)cc(O)c1C2=O [Emo, Emodin] |
| 11 times | 12 times | 0.7532 wt % | 6.5294 wt % | 9.0852 wt % | 72.3590 wt % |  | O=c1c(O)c(-c2ccc(O)cc2)oc2cc(O)cc(O)c12 [Kae, Kaempferol] |
|  | 47 times | 0.1253 wt % | 0.0000 wt % | 5.8588 wt % | 0.0000 wt % | cannot be detected | CC1(C)CC[C@]2(C(=O)O)CC[C@]3(C)C(=CC[C@@H]4[C@@]5(C)CC[C@H](O)C(C)(C)[C@@H]5CC[C@]43C)[C@@H]2C1 [OA, Oleanolic Acid] |

The remaining lines, values behind:

| Compound | elevation of diffusion properties, transdermal patch relative to herbal paste control, receiving medium | elevation of diffusion properties, transdermal patch relative to herbal paste control, pig skin | percentage by weight of marker diffused to the dermis (remained in pig skin), Herbal Paste (Control) | percentage by weight of marker in the receiving cell, Herbal Paste (Control) (receiving medium 0.9% NaCl) | percentage by weight of marker diffused to the dermis (remained in pig skin), Transdermal Patch (Test Sample) | percentage by weight of marker in the receiving cell, Transdermal Patch (Test Sample) (receiving medium 0.9% NaCl) | detection in the receiving medium (in words) (receiving medium 0.9% NaCl) |
| --- | --- | --- | --- | --- | --- | --- | --- |
| CC1(C)CC[C@]2(C(=O)O[C@@H]3O[C@H](CO[C@@H]4O[C@H](CO)[C@@H](O)[C@H](O)[C@H]4O)[C@@H](O)[C@H](O)[C@H]3O)CC[C@]3(C)C(=CC[C@@H]4[C@@]5(C)CC[C@H](O[C@@H]6OC[C@H](O)[C@H](O)[C@H]6O)[C@@](C)(CO)[C@@H]5CC[C@]43C)[C@@H]2C1 [ASP6, Asperosaponin VI] | 32 times | 33 times | 0.0859 wt % | 0.1375 wt % | 2.8010 wt % | 4.4904 wt % |  |
| CC(C)=CCC[C@](C)(O[C@@H]1O[C@H](CO[C@@H]2O[C@H](CO)[C@@H](O)[C@H](O)[C@H]2O)[C@@H](O)[C@H](O)[C@H]1O)[C@H]1CC[C@]2(C)[C@@H]1[C@H](O)C[C@@H]1[C@@]3(C)CC[C@H](O[C@@H]4O[C@H](CO)[C@@H](O)[C@H](O)[C@H]4O[C@@H]4O[C@H](CO)[C@@H](O)[C@H](O)[C@H]4O)C(C)(C)[C@@H]3CC[C@]12C [Rb1, Ginsenoside Rb1] | 472 times | 17 times |  | 0.0167 wt % |  | 7.8820 wt % |  |
| CC(C)=CCC[C@](C)(O[C@@H]1O[C@H](CO)[C@@H](O)[C@H](O)[C@H]1O)[C@H]1CC[C@]2(C)[C@@H]1[C@H](O)C[C@@H]1[C@@]3(C)CC[C@H](O)C(C)(C)[C@@H]3[C@@H](O[C@@H]3O[C@H](CO)[C@@H](O)[C@H](O)[C@H]3O)C[C@]12C [Rg1, Ginsenoside Rg1] | 14 times | 21 times |  | 1.1884 wt % |  | 16.3635 wt % |  |
| O=C(O)c1cc(O)c2c(c1)C(=O)c1cccc(O)c1C2=O [Rhein] | 21 times | 11 times | 0.1371 wt % | 0.2299 wt % | 1.4277 wt % | 4.8924 wt % |  |
| Hydrosafflower yellow A [HYA] | 8 times | 41 times | 0.0117 wt % | 2.0879 wt % | 0.4772 wt % | 16.5104 wt % |  |
